According to patent US4820694A, “Modifications of 3-O-demethylmycinose in macrocin and lactenocin” (priority 1986, dated 1989):
≈ marks a conversion by molar mass, not a printed value. Where two headings read alike, the source gives them in different places.

Columns and labels:
[1] = system: Streptococcus pneumoniae Park I; assay: microbe, parasite or virus in culture; format: cell-based; conditions: Streptococcus pneumoniae
Protocol: (§1) The MIC's in Table III were determined by standard agar-dilution assays. The MIC's in Table IV were obtained using conventional brothdilution microtiter tests.

[2] = system: Staphylococcus aureus S13E; assay: microbe, parasite or virus in culture; format: cell-based; conditions: Staphylococcus aureus, S13E
Protocol: as §1

[3] = system: Pasteurella multocida 22A; assay: broth-dilution microtiter MIC test; format: cell-based; conditions: Pasteurella multocida, 22A
Protocol: as §1

[4] = system: Pasteurella hemolytica 41D; assay: broth-dilution microtiter MIC test; format: cell-based; conditions: Pasteurella, 41D
Protocol: as §1

[5] = system: Mycoplasma gallisepticum 29C; assay: broth-dilution microtiter MIC test; format: cell-based; conditions: Mycoplasmoides gallisepticum, 29C
Protocol: as §1

[6] = system: Pasteurella multocida 17E; assay: broth-dilution microtiter MIC test; format: cell-based; conditions: Pasteurella multocida, 17E
Protocol: as §1

[7] = system: Mycoplasma gallisepticum 15E; assay: broth-dilution microtiter MIC test; format: cell-based; conditions: Mycoplasmoides gallisepticum, 15E
Protocol: as §1

[8] = system: Pasteurella multocida 60A; assay: broth-dilution microtiter MIC test; format: cell-based; conditions: Pasteurella multocida, 60A
Protocol: as §1

[9] = system: Staphylococcus aureus 19C; assay: broth-dilution microtiter MIC test; format: cell-based; conditions: Staphylococcus aureus, 19C
Protocol: as §1

[10] = system: Pasteurella hemolytica 23C; assay: broth-dilution microtiter MIC test; format: cell-based; conditions: Pasteurella, 23C
Protocol: as §1

Mycoplasma hyorhinis 29E = assay: broth-dilution microtiter MIC test; format: cell-based; conditions: Mycoplasma, 29E
Protocol: as §1

[11] = system: Pasteurella multocida 40G; assay: broth-dilution microtiter MIC test; format: cell-based; conditions: Pasteurella multocida, 40G
Protocol: as §1

[12] = system: Pasteurella multocida 68C; assay: broth-dilution microtiter MIC test; format: cell-based; conditions: Pasteurella multocida, 68C
Protocol: as §1

Mycoplasma synoviae 40A = assay: broth-dilution microtiter MIC test; format: cell-based; conditions: Mycoplasmopsis synoviae, 40A
Protocol: as §1

Streptococcus sp. 19F = assay: broth-dilution microtiter MIC test; format: cell-based; conditions: Streptococcus, SP.19F
Protocol: as §1

[13] = system: Mycoplasma gallisepticum 36H; assay: broth-dilution microtiter MIC test; format: cell-based; conditions: Mycoplasmoides gallisepticum, 36H
Protocol: as §1

[14] = system: Bordetella bronchiseptica; assay: broth-dilution microtiter MIC test; format: cell-based; conditions: Bordetella bronchiseptica
Protocol: as §1

[15] = system: Pasteurella hemolytica 22C; assay: broth-dilution microtiter MIC test; format: cell-based; conditions: Pasteurella, 22C
Protocol: as §1

[16] = system: Staphylococcus aureus X400; assay: standard agar-dilution MIC assay; format: cell-based; conditions: Staphylococcus aureus, X400
Protocol: as §1

[17] = system: Staphylococcus aureus V41; assay: standard agar-dilution MIC assay; format: cell-based; conditions: Staphylococcus aureus, V41
Protocol: as §1

[18] = system: Staphylococcus aureus X1.1; assay: standard agar-dilution MIC assay; format: cell-based; conditions: Staphylococcus aureus, X1.1
Protocol: as §1

[19] = system: Streptococcus pyogenes C203; assay: standard agar-dilution MIC assay; format: cell-based; conditions: Streptococcus pyogenes, C203
Protocol: as §1

[20] = system: Haemophilus influenzae C.L.; assay: standard agar-dilution MIC assay; format: cell-based; conditions: Haemophilus influenzae
Protocol: as §1

Escherichia coli EC14 = assay: standard agar-dilution MIC assay; format: cell-based
Protocol: as §1

[21] = system: Pseudomonas aeruginosa X239; assay: standard agar-dilution MIC assay; format: cell-based; conditions: Pseudomonas aeruginosa, X239
Protocol: as §1

[22] = system: Haemophilus influenzae 76; assay: standard agar-dilution MIC assay; format: cell-based; conditions: Haemophilus influenzae, 76
Protocol: as §1

[23] = system: Staphylococcus epidermidis EP12; assay: standard agar-dilution MIC assay; format: cell-based
Protocol: as §1

[24] = system: Streptococcus Group D X66; assay: standard agar-dilution MIC assay; format: cell-based; conditions: read-out: MIC
Protocol: as §1

[25] = system: Klebsiella pneumoniae X68; assay: standard agar-dilution MIC assay; format: cell-based; conditions: Klebsiella pneumoniae, X68
Protocol: as §1

[26] = system: Streptococcus Group D 9960; assay: standard agar-dilution MIC assay; format: cell-based; conditions: GROUPD9960, read-out: MIC
Protocol: as §1

[27] = system: Staphylococcus epidermidis EPI1; assay: standard agar-dilution MIC assay; format: cell-based; conditions: Staphylococcus epidermidis, EPI1
Protocol: as §1

[28] = system: Streptococcus pyogenes C203; assay: protection of mice experimentally infected with S. pyogenes C203; format: in vivo
Protocol: The formula 1 compounds have shown in vivo antimicrobial activity against experimentally-induced infections in laboratory animals. When two doses of test compound were administered to mice experimentally infected with S. pyrogenes C203, the activity observed was measured as an ED50 value [effective dose in mg/kg to protect 50% of the test animals: see Warren Wick, et al., J. Bacteriol. 81, 233-235 (1961)].
^a mg/kg × 2; doses given 1 and 4 hours postinfection

[29] = broth-dilution microtiter, read-out: MIC
[30] = broth-dilution microtiter, Bovine isolate, read-out: MIC
[31] = broth-dilution microtiter, Avian isolate, read-out: MIC
[32] = agar-dilution, Ampicillin-sensitive strain, read-out: MIC
[33] = agar-dilution, Ampicillin-resistant strain, read-out: MIC

CCC1OC(=O)CC(O)C(C)C(OC2OC(C)C(OC3CC(C)(O)C(O)C(C)O3)C(N(C)C)C2OC(C)=O)C(CC=O)CC(C)C(=O)C=CC(C)=CC1COC1OC(C)C(OC(=O)COc2ccccc2)C(OC(=O)COc2ccccc2)C1OC (stereo not drawn) [Compound 15, 2'-O-Acetyl-3'",4'"-di-O-phenoxyacetyl-macrocin]
MIC [1]: 0.5 µg/mL (≈ 0.412 µM) | MIC [2]: 32 µg/mL (≈ 26.4 µM) | MIC [3, 29]: > 50 µg/mL | MIC [4, 29]: > 50 µg/mL | MIC [5]: 6.25 µg/mL (≈ 5.16 µM) | MIC [6, 30]: > 50 µg/mL | MIC [7]: 50 µg/mL (≈ 41.2 µM) | MIC [8, 31]: > 50 µg/mL | MIC [9]: 25 µg/mL (≈ 20.6 µM) | MIC [10, 29]: > 50 µg/mL | MIC (Mycoplasma hyorhinis 29E): 6.25 µg/mL (≈ 5.16 µM) | MIC [11, 29]: > 50 µg/mL | MIC [12, 29]: > 50 µg/mL | MIC (Mycoplasma synoviae 40A): 3.12 µg/mL (≈ 2.57 µM) | MIC (Streptococcus sp. 19F): 3.12 µg/mL (≈ 2.57 µM) | MIC [13]: 50 µg/mL (≈ 41.2 µM) | MIC [14, 29]: > 50 µg/mL | MIC [15, 29]: > 50 µg/mL | MIC [16]: 64 µg/mL (≈ 52.8 µM) | MIC [17]: 8 µg/mL (≈ 6.6 µM) | MIC [18]: 4 µg/mL (≈ 3.3 µM) | MIC [19]: 4 µg/mL (≈ 3.3 µM) | MIC [20, 32]: > 128 µg/mL | MIC (Escherichia coli EC14; agar-dilution, read-out: MIC): > 128 µg/mL | MIC ([21]; agar-dilution, read-out: MIC): > 128 µg/mL | MIC [22, 33]: > 128 µg/mL | MIC [23]: 32 µg/mL (≈ 26.4 µM) | MIC [24]: 32 µg/mL (≈ 26.4 µM) | MIC ([25]; agar-dilution, read-out: MIC): > 128 µg/mL | MIC [26]: 32 µg/mL (≈ 26.4 µM) | MIC [27]: 32 µg/mL (≈ 26.4 µM) | ED50 ([28]; C203, Oral, mice, mg/kg × 2, doses given 1 and 4 hours postinfection, read-out: ED50): 87.1 mg/kg | ED50 ([28]; C203, sc, Subcutaneous, mice, mg/kg × 2, doses given 1 and 4 hours postinfection, read-out: ED50): > 10 mg/kg

CCC1OC(=O)CC(O)C(C)C(OC2OC(C)C(OC3CC(C)(O)C(O)C(C)O3)C(N(C)C)C2OC(C)=O)C(CC=O)CC(C)C(=O)C=CC(C)=CC1COC1OC(C)C(OC(C)=O)C(OC(C)=O)C1OC (stereo not drawn) [Compound 3, 2',3'",4'"-Tri-O-acetyl-macrocin]
MIC ([1]; agar-dilution, read-out: MIC): 1 µg/mL (≈ 0.973 µM) | MIC [2]: 4 µg/mL (≈ 3.89 µM) | MIC [3, 29]: > 50 µg/mL | MIC [4, 29]: > 50 µg/mL | MIC [5]: 3.12 µg/mL (≈ 3.03 µM) | MIC [6, 30]: > 50 µg/mL | MIC [7, 29]: > 50 µg/mL | MIC [8, 31]: > 50 µg/mL | MIC [9, 29]: 6.25 µg/mL (≈ 6.08 µM) | MIC [10, 29]: > 50 µg/mL | MIC (Mycoplasma hyorhinis 29E): 25 µg/mL (≈ 24.3 µM) | MIC [11, 29]: > 50 µg/mL | MIC [12, 29]: > 50 µg/mL | MIC (Mycoplasma synoviae 40A; [29]): 12.5 µg/mL (≈ 12.2 µM) | MIC (Streptococcus sp. 19F): 3.12 µg/mL (≈ 3.03 µM) | MIC [13, 29]: > 50 µg/mL | MIC [14, 29]: > 50 µg/mL | MIC [15, 29]: > 50 µg/mL | MIC [16]: 4 µg/mL (≈ 3.89 µM) | MIC ([17]; agar-dilution, Penicillin-resistant strain, read-out: MIC): 2 µg/mL (≈ 1.95 µM) | MIC ([18]; agar-dilution, read-out: MIC): 2 µg/mL (≈ 1.95 µM) | MIC ([19]; agar-dilution, read-out: MIC): 1 µg/mL (≈ 0.973 µM) | MIC [20, 32]: > 128 µg/mL | MIC (Escherichia coli EC14; agar-dilution, read-out: MIC): > 128 µg/mL | MIC ([21]; agar-dilution, read-out: MIC): > 128 µg/mL | MIC [22, 33]: 2 µg/mL (≈ 1.95 µM) | MIC ([23]; agar-dilution, read-out: MIC): 2 µg/mL (≈ 1.95 µM) | MIC [24]: 8 µg/mL (≈ 7.78 µM) | MIC ([25]; agar-dilution, read-out: MIC): > 128 µg/mL | MIC [26]: 4 µg/mL (≈ 3.89 µM) | MIC ([27]; agar-dilution, read-out: MIC): 2 µg/mL (≈ 1.95 µM)

CCC1OC(=O)CC(O)C(C)C(OC2OC(C)C(OC3CC(C)(O)C(O)C(C)O3)C(N(C)C)C2OC(C)=O)C(CC=O)CC(C)C(=O)C=CC(C)=CC1COC1OC(C)C(OC(C)=O)C(OC(=O)Cc2ccccc2)C1OC (stereo not drawn) [Compound 17, 2',4'"-Di-O-acetyl-3'"-O-phenylacetylmacrocin]
MIC [1]: 1 µg/mL (≈ 0.906 µM) | MIC [2]: 4 µg/mL (≈ 3.62 µM) | MIC [3]: > 50 µg/mL | MIC [4]: > 50 µg/mL | MIC [5]: 0.39 µg/mL (≈ 0.353 µM) | MIC [6]: > 50 µg/mL | MIC [7]: 12.5 µg/mL (≈ 11.3 µM) | MIC [8]: > 50 µg/mL | MIC [9]: 3.12 µg/mL (≈ 2.83 µM) | MIC [10]: > 50 µg/mL | MIC (Mycoplasma hyorhinis 29E): 3.12 µg/mL (≈ 2.83 µM) | MIC [11]: > 50 µg/mL | MIC [12]: > 50 µg/mL | MIC (Mycoplasma synoviae 40A): 1.56 µg/mL (≈ 1.41 µM) | MIC (Streptococcus sp. 19F): 1.56 µg/mL (≈ 1.41 µM) | MIC [13]: 12.5 µg/mL (≈ 11.3 µM) | MIC [14]: > 50 µg/mL | MIC [15]: > 50 µg/mL | MIC [16]: 4 µg/mL (≈ 3.62 µM) | MIC [17]: 2 µg/mL (≈ 1.81 µM) | MIC [18]: 2 µg/mL (≈ 1.81 µM) | MIC [19]: 1 µg/mL (≈ 0.906 µM) | MIC [20]: > 128 µg/mL | MIC (Escherichia coli EC14): > 128 µg/mL | MIC [21]: > 128 µg/mL | MIC [22]: > 128 µg/mL | MIC [23]: 2 µg/mL (≈ 1.81 µM) | MIC [24]: 2 µg/mL (≈ 1.81 µM) | MIC [25]: > 128 µg/mL | MIC [26]: 2 µg/mL (≈ 1.81 µM) | MIC [27]: 4 µg/mL (≈ 3.62 µM) | ED50 ([28]; C203, sc): > 10 mg/kg
